Test results as given in PubChem BioAssay AID1357 (Sanford-Burnham Center for Chemical Genomics, 2008).
Activity calls are given as the source filed them.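 Rule for the calls: active = no band for the stress protein CHOP on the immunoblot after the stress trigger, its induction blocked; inactive = CHOP band still seen after the stress trigger.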

tested on: CSM14.1 cells, thapsigargin-induced CHOP Western blot; test: inhibitors of CHOP induction, mechanism study for ER stress cell death inhibitors, thapsigargin stimulus, CSM14.1 cells, Western blot (AID 1357)

Row | SMILES | outcome
1 | CCCOc1ccc(C2Nc3ccccc3NC3=C2C(=O)CC(c2ccc(OC)c(OC)c2)C3)cc1 (stereo unspecified) | inactive
2 | COc1ccc(C2CC(=O)C3=C(C2)Nc2ccccc2NC3c2cccc(Oc3ccccc3)c2)cc1OC (stereo unspecified) | inactive
3 | COc1ccc(C2CC(=O)C3=C(C2)Nc2ccccc2NC3c2cc(C)ccc2C)cc1 (stereo unspecified) | inactive
4 | COc1ccc(C2CC(=O)C3=C(C2)Nc2ccccc2NC3c2cccc(C(F)(F)F)c2)cc1OC (stereo unspecified) | inactive
5 | O=C1CC(c2ccccc2)CC2=C1C(c1c(F)cccc1Cl)Nc1ccccc1N2 (stereo unspecified) | inactive
6 | CSc1ccc(C2Nc3ccccc3NC3=C2C(=O)CC(c2ccccc2)C3)cc1 (stereo unspecified) | inactive
7 | COc1ccc(C2CC(=O)C3=C(C2)Nc2ccccc2NC3c2ccccc2C(F)(F)F)cc1OC (stereo unspecified) | inactive
8 | CC1(C)CC(=O)C2=C(C1)Nc1ccccc1NC2c1ccc(-c2ccccc2)cc1 (stereo unspecified) | inactive
9 | COc1ccc(C2CC(=O)C3=C(C2)Nc2ccccc2NC3c2cccc(Br)c2)cc1OC (stereo unspecified) | inactive
10 | CCOc1cccc(C2Nc3ccccc3NC3=C2C(=O)CC(c2ccc(OC)cc2)C3)c1 (stereo unspecified) | inactive
11 | CCOc1cc(C2Nc3ccccc3NC3=C2C(=O)CC(c2ccc(OC)cc2)C3)cc(Cl)c1O (stereo unspecified) | inactive
